What follows are compounds tested on Rattus norvegicus (assay: Average percentage HDLC change in 6 cholesterol cholic acid-fed male rats (versus control) after treatment for 8 days at a dose of 100 mg/kg/day).
Type: functional

SMILES | HDL-C change [%]
CC1(C)CN2C(=O)c3ccccc3C(O)(c3ccccc3)C2=N1 (stereo not drawn) | 55
C[C@@H]1CN2C(=O)c3ccccc3[C@@](O)(c3ccc(F)cc3)C2=N1 | 105
O=C1c2ccccc2C(O)(c2ccc(F)cc2)C2=NC3(CCCC3)CN12 (stereo not drawn) | 21
O=C1c2ccccc2C(O)(c2ccc(F)cc2)C2=NCCCN12 (stereo not drawn) | 22
O=C1c2ncccc2C(O)(c2ccc(Cl)cc2)C2=NCCN12 (stereo not drawn) | 49
O=C1c2ccccc2C(O)(c2ccc(F)cc2)C2=NCCN12 (stereo not drawn) | 0
CC1(C)CN2C(=O)c3ccccc3C(O)(c3ccc(F)cc3)C2=N1 (stereo not drawn) | 90
C[C@@H]1CN2C(=O)c3ccccc3C(O)(c3ccc(F)cc3)C2=N1 (single isomer, unassigned) | 38

From ChEMBL document CHEMBL1134163, “Design and synthesis of tricyclic derivatives as high density lipoprotein cholesterol enhancers” (2001)
